In patent US7022733B2, “Substituted 2-phenyl benzofurans as estrogenic agents” (Wyeth, priority 2001, dated 2006) one finds melting point data, which are given here for 19 molecules.

Structures can show the parent of a compound that is named as a salt.

What is called melting point is the temperature of the solid-liquid transition. For the molecule `CC(C)c1cc(O)cc2cc(-c3ccc(O)cc3)oc12` [Example 118, 2-(4-Hydroxy-phenyl)-7-isopropyl-benzofuran-5-ol], the melting point lay within 192 to 194 °C.

`COc1c(O)ccc2oc(-c3ccc(O)cc3)cc12` [Example 132, 2-(4-Hydroxy-phenyl)-4-methoxy-benzofuran-5-ol]: the melting point lay within 165 to 171.68 °C.

`O=C(O)c1cc(O)cc2cc(-c3ccc(O)cc3)oc12` [Example 24, 5-Hydroxy-2-(4-hydroxy-phenyl)-benzofuran-7-carboxylic acid] came in with a melting point of 260 to 262 °C.

`COC(=O)C=Cc1cc(O)cc2cc(-c3ccc(O)cc3)oc12` [Example 59, 3-[5-Hydroxy-2-(4-hydroxy-phenyl)benzofuran-7-yl]-acrylic acid methyl ester] came in with a melting point of 231 to 234 °C.

In turn, `CCSCc1cc(O)cc2cc(-c3ccc(O)cc3)oc12` [Example 11, 7-Ethylsulfanylmethyl-2-(4-hydroxy-phenyl)-benzofuran-5-ol] yielded a melting point of 181 to 183 °C.

With `COc1cc(O)c(C=NO)c2cc(-c3ccc(O)cc3)oc12` [Example 72, 5-Hydroxy-2-(4-hydroxy-phenyl)-7-methoxy-benzofuran-4-carbaldehyde oxime], the melting point was 205 °C (dec.).

For the molecule `Oc1ccc(-c2cc3cc(O)ccc3o2)c(-c2ccc(OCCN3CCCC3)cc2)c1` (as salt: hydrochloride) [Example 108, 2-[5-Hydroxy-4′-(2-pyrrolidin-1-yl-ethoxy)-biphenyl-2-yl]-benzofuran-5-ol], the melting point fell in the range of 266 to 269 °C.

Regarding `CCc1cc(O)cc2cc(-c3ccc(O)cc3)oc12` [Example 30, 7-Ethyl-2-(4-hydroxy-phenyl)-benzofuran-5-ol], the melting point is 218 to 220 °C.

In the case of `O=C(O)c1ccc2oc(-c3ccc(O)cc3)cc2c1` [Example 143, 2-(4-Hydroxy-phenyl)-benzofuran-5-carboxylic acid], the melting point was > 300 °C.

With `CC(O)c1c(-c2ccc(O)cc2)oc2ccc(O)cc12` (stereo not shown) [Example 113, 3-(1-Hydroxy-ethyl)-2-(4-hydroxy-phenyl)-benzofuran-5-ol], the melting point fell in the range of 177 to 182 °C.

For `Oc1ccc(-c2cc3cc(O)cc(CBr)c3o2)cc1` [Example 4, 7-Bromomethyl-2-(4-hydroxy-phenyl)-benzofuran-5-ol], the melting point fell in the range of 337 to 339 °C.

On to `Oc1ccc(-c2cc3c(Br)c(O)cc(Br)c3o2)cc1` [Example 63, 4,7-Dibromo-2-(4-hydroxy-phenyl)-benzofuran-5-ol], for which the melting point lay within 215 to 217 °C.

For the molecule `OCc1cc(O)cc2cc(-c3ccc(O)cc3)oc12` [Example 25, 7-Hydroxymethyl-2-(4-hydroxy-phenyl)-benzofuran-5-ol], the melting point lay within 258 to 260 °C.

With `OCc1ccc2oc(-c3ccc(O)cc3)cc2c1` [Example 144, 4-(5-Hydroxymethyl-benzofuran-2-yl)-phenol], the melting point is 248 to 250 °C.

The molecule `Cc1cc(O)ccc1-c1cc2cc(O)ccc2o1` [Example 80, 2-(4-Hydroxy-2-methyl-phenyl)-benzofuran-5-ol] showed a melting point of 167 to 169 °C.

In the case of `COc1ccc(-c2cc3cc(OC)cc(CO)c3o2)cc1` [Example 3, [5-Methoxy-2-(4-methoxy-phenyl)-benzofuran-7-yl]-methanol], the melting point lay in the range of 128 to 130 °C.

For the molecule `N#Cc1c(O)ccc2oc(-c3ccc(O)cc3)cc12` [Example 135, 5-Hydroxy-2-(4-hydroxy-phenyl)-benzofuran-4-carbonitrile], the melting point is > 230 °C.

`Oc1ccc(-c2cc3cc(O)ccc3o2)c(Br)c1` [Example 102, 2-(2-Bromo-4-hydroxy-phenyl)-benzofuran-5-ol]: the melting point worked out at 195 °C.

`CCCc1cc(O)cc2cc(-c3ccc(O)cc3)oc12` (as salt: HCl) [Example 35, 2-(4-Hydroxy-phenyl)-7-propyl-benzofuran-5-ol] yielded a melting point of 178 to 180 °C.
